Test results published in patent publication US11702418B2, “SOS1 inhibitors” (priority 2019, dated 2023).
Where a name gives a salt, the structure may show the parent alone. Read-outs that look alike come from different tables or passages of the source.

What was measured:
[1] = target: recombinant human SOS1 polypeptide (amino acids 560-1049) (Homo sapiens (Human), UniProt Q07889); assay: biochemical; format: binding; settings: read-out: Ki, Inhibition of Labeled Tracer Binding to SOS1
pERK in MKN1 cells = assay: cells; format: cell-based; settings: Homo sapiens
[2] = HTRF displacement, Cy5 labelled tracer, Morrison equation for competitive binding
[3] = MKN-1, pERK inhibition, In-Cell Western, MKN1 or H358 cells (Table 24 does not say which), 0.5-1 hour incubation, read-out: IC50

Sequence of recombinant human SOS1 polypeptide (amino acids 560-1049) (Q07889 560-1049): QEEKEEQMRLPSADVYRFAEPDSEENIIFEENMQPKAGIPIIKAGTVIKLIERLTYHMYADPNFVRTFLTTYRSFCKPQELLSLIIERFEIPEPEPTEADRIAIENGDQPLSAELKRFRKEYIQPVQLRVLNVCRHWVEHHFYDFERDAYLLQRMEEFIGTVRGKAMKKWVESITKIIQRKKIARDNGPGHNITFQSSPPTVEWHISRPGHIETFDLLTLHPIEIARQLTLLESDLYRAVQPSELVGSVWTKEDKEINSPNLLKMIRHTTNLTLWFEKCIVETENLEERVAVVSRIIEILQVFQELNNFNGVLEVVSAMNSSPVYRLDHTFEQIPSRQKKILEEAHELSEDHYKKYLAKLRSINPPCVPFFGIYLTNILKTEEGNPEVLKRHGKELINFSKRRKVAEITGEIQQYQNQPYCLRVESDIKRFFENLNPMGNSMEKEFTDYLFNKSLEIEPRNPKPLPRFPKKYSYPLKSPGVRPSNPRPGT

Structure (SMILES)	Ki [1]	IC50 (pERK in MKN1 cells; MKN-1)	Ki [1, 2]	IC50 (pERK in MKN1 cells; [3])
Cc1c(C#N)cccc1[C@@H](C)Nc1nnc(C)c2ccc(N3CCN4CCCC[C@@H]4C3)cc12 [Example 10-82, 2-methyl-3-((R)-1-((4-methyl-7-((R)-octahydro-2H-pyrido[1,2-a]pyrazin-2-yl)phthalazin-1-yl)amino)ethyl)benzonitrile Hydrochloride salt]	0.86 nM	52 nM		
Cc1nnc(N[C@H](C)c2cccc(C(F)F)c2F)c2cc(N3C[C@H]4C[C@@H]3CO4)ccc12 [Example 10-85, 7-((1R,4R)-2-oxa-5-azabicyclo[2.2.1]heptan-5-yl)-N-((R)-1-(3-(difluoromethyl)-2-fluorophenyl)ethyl)-4-methylphthalazin-1-amine]			0.78 nM	18 nM
Cc1nnc(N[C@H](C)c2cccc(C(F)F)c2F)c2cc(N3CCN4CCOC[C@@H]4C3)ccc12 [Example 10-86, N-((R)-1-(3-(difluoromethyl)-2-fluorophenyl)ethyl)-7-((S)-hexahydropyrazino[2,1-c][1,4]oxazin-8(1H)-yl)-4-methylphthalazin-1-amine Formate salt]	1.51 nM	21 nM		
Cc1c([C@@H](C)Nc2nnc(C)c3ccc(N4CCN(C(=O)[C@H]5CCOC5)CC4)cc23)cccc1C(F)(F)F [Example 11-5, (4-(1-methyl-4-(((R)-1-(2-methyl-3-(trifluoromethyl)phenyl)ethyl)amino)phthalazin-6-yl)piperazin-1-yl)((S)-tetrahydrofuran-3-yl)methanone]			0.01 nM	12 nM
Cc1c(C#N)cccc1[C@@H](C)Nc1nnc(C)c2cnc(N3CCN(C(=O)C4CC4)CC3)cc12 [Example 11-6, (R)-3-(1-((7-(4-(cyclopropanecarbonyl)piperazin-1-yl)-4-methylpyrido[3,4-d]pyridazin-1-yl)amino)ethyl)-2-methylbenzonitrile]			0.42 nM	55 nM
Cc1c([C@@H](C)Nc2nnc(C)c3cnc(N4CCN(c5cnn(C)c5)CC4)cc23)cccc1C(F)(F)F [Example 12-1, (R)-4-methyl-7-(4-(1-methyl-1H-pyrazol-4-yl)piperazin-1-yl)-N-(1-(2-methyl-3-(trifluoromethyl)phenyl)ethyl)pyrido[3,4-d]pyridazin-1-amine]			0.2 nM	5 nM
Cc1c([C@@H](C)Nc2nnc(C)c3cnc(N4CC5CC(C4)O5)cc23)cccc1C(F)(F)F [Example 12-2, 7-(6-oxa-3-azabicyclo[3.1.1]heptan-3-yl)-4-methyl-N—((R)-1-(2-methyl-3-(trifluoromethyl)phenyl)ethyl)pyrido[3,4-d]pyridazin-1-amine]			0.6 nM	9 nM
Cc1c([C@@H](C)Nc2nnc(C)c3cnc(N4CC5(COC5)C4)cc23)cccc1C(F)(F)F [Example 12-3]			0.74 nM	30 nM
Cc1c([C@@H](C)Nc2nnc(C)c3cnc(N4C[C@H](C)O[C@@H](C)C4)cc23)cccc1C(F)(F)F [Example 12-6]			0.87 nM	522 nM
Cc1c([C@@H](C)Nc2nnc(C)c3cnc(N4CCC(C)(O)CC4)cc23)cccc1C(F)(F)F [Example 12-7]			0.4 nM	66 nM
Cc1c([C@@H](C)Nc2nnc(C)c3cnc(N4C[C@@H]5C[C@H]4CO5)cc23)cccc1C(F)(F)F [Example 12-8]			1.14 nM	38 nM
Cc1c([C@@H](C)Nc2nnc(C)c3cnc(N4C[C@H]5C[C@@H]4CO5)cc23)cccc1C(F)(F)F [Example 12-9]			0.47 nM	10 nM
Cc1c([C@@H](C)Nc2nnc(C)c3cnc(O[C@H]4CCN(C)C4)cc23)cccc1C(F)(F)F [Example 12-11]			8.76 nM	142 nM
Cc1c([C@@H](C)Nc2nnc(C)c3cnc(OC4CN(C)C4)cc23)cccc1C(F)(F)F [Example 12-12]			21.6 nM	249 nM
Cc1c([C@@H](C)Nc2nnc(C)c3cnc(N4CCS(=O)(=O)CC4)cc23)cccc1C(F)(F)F [Example 12-13]			1.57 nM	39 nM
Cc1c([C@@H](C)Nc2nnc(C)c3cnc(N4CCN5CCOC[C@@H]5C4)cc23)cccc1C(F)(F)F [Example 12-14]			0.55 nM	17 nM
Cc1c([C@@H](C)Nc2nnc(C)c3cnc(N4CCC(N(C)C)CC4)cc23)cccc1C(F)(F)F [Example 12-15]			0.25 nM	17 nM
Cc1c([C@@H](C)Nc2nnc(C)c3cnc(N4CC5(CCN(C)C5=O)C4)cc23)cccc1C(F)(F)F [Example 12-16]			0.87 nM	11 nM
Cc1c([C@@H](C)Nc2nnc(C)c3cnc(N4CC5(CCN(C)C5)C4)cc23)cccc1C(F)(F)F [Example 12-17]			0.46 nM	17 nM
Cc1c([C@@H](C)Nc2nnc(C)c3cnc(N4CCC(C)(N(C)C)CC4)cc23)cccc1C(F)(F)F [Example 12-18]			0.62 nM	37 nM
Cc1c([C@@H](C)Nc2nnc(C)c3cnc(N4CC(C)(N(C)C)C4)cc23)cccc1C(F)(F)F [Example 12-19]			1 nM	59 nM
Cc1c([C@@H](C)Nc2nnc(C)c3cnc(N4CC(N(C)C)C4)cc23)cccc1C(F)(F)F [Example 12-20]			1.6 nM	62 nM
Cc1c([C@@H](C)Nc2nnc(C)c3cnc(N4CC(C)(O)C4)cc23)cccc1C(F)(F)F [Example 12-21]			1.32 nM	57 nM
Cc1c([C@@H](C)Nc2nnc(C)c3cnc(N4CC(O)C4)cc23)cccc1C(F)(F)F [Example 12-22]			1.24 nM	89 nM
Cc1c(C#N)cccc1[C@@H](C)Nc1nnc(C)c2cnc(N3CC4CC(C3)O4)cc12 [Example 12-23]			1.05 nM	46 nM
Cc1c(C#N)cccc1[C@@H](C)Nc1nnc(C)c2cnc(N3C[C@H]4C[C@@H]3CO4)cc12 [Example 12-24]			1.24 nM	38 nM

Structure (SMILES)	Ki [1]	IC50 (pERK in MKN1 cells; MKN-1)	Ki [1, 2]	IC50 (pERK in MKN1 cells; [3])
Cc1c(C#N)cccc1[C@@H](C)Nc1nnc(C)c2cnc(N3CCNCC3)cc12 [Example 12-25]			2.41 nM	35 nM
Cc1c([C@@H](C)Nc2nnc(C)c3cnc(N4C[C@H]5CC[C@@H]4CN5C)cc23)cccc1C(F)(F)F [Example 12-26]			0.45 nM	27 nM
Cc1c(C#N)cccc1[C@@H](C)Nc1nnc(C)c2cnc(N3CCN4CCOC[C@@H]4C3)cc12 [Example 12-27]			2.81 nM	14 nM
Cc1c(C#N)cccc1[C@@H](C)Nc1nnc(C)c2cnc(N3CCC(N(C)C)CC3)cc12 [Example 12-28]			1.53 nM	17 nM
Cc1c(C#N)cccc1[C@@H](C)Nc1nnc(C)c2cnc(N3CCC(N4CCC4)CC3)cc12 [Example 12-29]			1.67 nM	16 nM
Cc1c(C#N)cccc1[C@@H](C)Nc1nnc(C)c2cnc(N3CC(C)(O)C3)cc12 [Example 12-30]			2.63 nM	54 nM
Cc1c([C@@H](C)Nc2nnc(C)c3cnc(N4C5CCC4COC5)cc23)cccc1C(F)(F)F [Example 12-31]			1.02 nM	70 nM
Cc1c([C@@H](C)Nc2nnc(C)c3cnc(N4CC5(CCNC5=O)C4)cc23)cccc1C(F)(F)F [Example 12-32]			0.97 nM	18 nM
Cc1c([C@@H](C)Nc2nnc(C)c3cnc(N4CCC(N5CCC5)CC4)cc23)cccc1C(F)(F)F [Example 12-33]			0.3 nM	55 nM
Cc1c(C#N)cccc1[C@@H](C)Nc1nnc(C)c2cnc(N3CCC(F)(F)CC3)cc12 [Example 12-34]			4.24 nM	51 nM
Cc1c(C#N)cccc1[C@@H](C)Nc1nnc(C)c2cnc(N3CC4(CCN(C)C4=O)C3)cc12 [Example 12-35]			3.78 nM	35 nM
Cc1c(C#N)cccc1[C@@H](C)Nc1nnc(C)c2cnc(N3CCN(c4cnn(C)c4)CC3)cc12 [Example 12-36]			0.99 nM	12 nM
COC1(C)CN(c2cc3c(N[C@H](C)c4cccc(C(F)(F)F)c4C)nnc(C)c3cn2)C1 [Example 12-37]			0.85 nM	32 nM
Cc1c([C@@H](C)Nc2nnc(C)c3cnc(N4CCC4)cc23)cccc1C(F)(F)F [Example 12-38]			1.29 nM	97 nM
Cc1c([C@@H](C)Nc2nnc(C)c3cnc(N4CC(C)(CO)C4)cc23)cccc1C(F)(F)F [Example 12-39]			0.91 nM	75 nM
Cc1c(C#N)cccc1[C@@H](C)Nc1nnc(C)c2cnc(N3C[C@H]4CC[C@@H]3CN4C)cc12 [Example 12-40]			0.64 nM	24 nM
Cc1c(C(F)F)cccc1[C@@H](C)Nc1nnc(C)c2cnc(N3CCN4CCOC[C@@H]4C3)cc12 [Example 12-42]			0.79 nM	27 nM
Cc1c(C#N)cccc1[C@@H](C)Nc1nnc(C)c2cnc(N3CC(C)(N(C)C)C3)cc12 [Example 12-43]			3.38 nM	44 nM
Cc1c(C#N)cccc1[C@@H](C)Nc1nnc(C)c2cnc(N3CCN(C)CC3)cc12 [Example 12-44]			1.16 nM	38 nM
Cc1c(C#N)cccc1[C@@H](C)Nc1nnc(C)c2cnc(N(C)C)cc12 [Example 12-45]			3.78 nM	250 nM
Cc1c(C#N)cccc1[C@@H](C)Nc1nnc(C)c2cnc(N3CCC(C)(N(C)C)CC3)cc12 [Example 12-46]			0.92 nM	37 nM
Cc1nnc(N[C@H](C)c2ccc(F)cc2F)c2cc(N3CC(C)(O)C3)ncc12 [Example 12-47]			38.7 nM	307 nM
Cc1nnc(N[C@H](C)c2ccc(F)cc2F)c2cc(N3CCN4CCOC[C@@H]4C3)ncc12 [Example 12-48]			17 nM	114 nM
Cc1nnc(N[C@H](C)c2ccc(F)cc2F)c2cc(N3CC(C)(N(C)C)C3)ncc12 [Example 12-49]			39.7 nM	161 nM
Cc1c(C#N)cccc1[C@@H](C)Nc1nnc(C)c2cnc(N3CC4(CCN(C)C4)C3)cc12 [Example 12-51]			0.79 nM	48 nM
